Consider two molecules from patent publication US20030176368A1, “Synthesis of epothilones, intermediates thereto and analogues thereof” (priority 2001, published 2003).

The subject of one series is tubulin. As to the kind of experiment: Tubulin binding: formation of microtubules in the presence of the compounds. It is filed as biochemical. The text has this: Indeed, the microtubule stabilizing ability closely parallels the observed cytotoxicity data.
For another series, the system named is CCRF-CEM/VM1. Description: XTT cytotoxicity assay, teniposide-resistant CCRF-CEM/VM1 cells. It is filed as cell-based, human. As to conditions: Homo sapiens, CCRF-CEM. The protocol:
(§1) XTT assay following 72 h inhibition. CCRF-CEM is a human T-cell acute lymphoblastic leukemia cell line. The CCRF-CEM/VBL100, CCRF-CEM/VM1, and CCRF-CEM/Taxol cell lines all overexpress P-glycoprotein and display a multidrug resistance phenotype to MDR-associated oncolytics. (Chou et al. Proc. Natl. Acad. Sci. USA 98:8113, 2001; incorporated herein by reference).
(§2) A typical experiment invovles culturing cells (e.g., CCRF-CEM) at an initial density of 2-5×10^4 cells per ml. They are maintained in a 5% CO2-humidified atmosphere at 37° C. in RPMI medium 1640 (GIBCO/BRL) containing penicillin (100 units/ml), streptomycin (100 μg/ml) (GIBCO/BRL), and 5% heat-inactivated fetal bovine serum. For cells that were grown in suspension (such as CCRF-CEM and its sublines), cytotoxicitiy is measured by using the 2,-3-bis(2-methoxy-4-nitro-5-sulfophenyl)-5 carboxanilide)-2H terazodium hydroxide (XTT)-microculture tetrazonium method in duplicate in 96-well microtiter plates. For both methods, the absorbance of each well is measured with a microplate reader (EL-340, Bio-Tek, Burlington, Vt.). Each run entails six or seven concentrations of the tested drugs. Dose-effect relationship data are analyzed with the median-effect plot.
(§3) The CCRF-CEM human T cells, acute lymphoblastic leukemic cells, its teniposide-resistant subline (CCRF-CEM/VM1) and vinblastine-resistant subline (CCRF-CEM/VBL100) are obtained from W. T. Beck (University of Illinois, Chicago, Ill.).
For orientation: Formazan colour is commonly taken as a measure of viable cells.

The nature of series [1]: Stability on exposure to human plasma. It is filed as in vitro ADME. From the text:
(§4) See Chou et al. Proc. Natl. Acad. Sci. USA 98:8113, 2001, incorporated herein by reference, for details.
(§5) However, the apparently disappointing murine in vivo results should be viewed in the context of reports that dEpoB itself evidenced a degree of bioinstability in murine plasma; yet had much longer plasma half-lives in higher organisms, including humans (Chou et al. J. Proc. Natl. Acad. Sci. USA 98:8113, 2001; incorporated herein by reference). The observed discrepancy in efficacy between mice and other mammals, including humans, has been ascribed to higher esterase levels in rodents.

The test system of another series is CCRF-CEM/VBL100. As to the kind of experiment: XTT cytotoxicity assay, vinblastine-resistant CCRF-CEM/VBL100 cells. It is filed as cell-based, human. As to conditions: Homo sapiens, CCRF-CEM. How it is done: as §1, §2, §3
A short description of series [2]: Stability on exposure to murine plasma. It is filed as in vitro ADME.
Excerpt: as §4, §5

The next series relates to CCRF-CEM/Taxol. As to the kind of experiment: XTT cytotoxicity assay, taxol-resistant CCRF-CEM/Taxol cells. It is filed as cell-based, human. The conditions noted are these: for IC50: Homo sapiens, CCRF-CEM. How it is done: as §1, §2
The test system of the next series is CCRF-CEM. As to the kind of experiment: XTT cytotoxicity assay, CCRF-CEM cells. It is filed as cell-based, human. The conditions noted are these: for IC50: Homo sapiens, CCRF-CEM. The protocol: as §1, §2, §3
The subject of series [3] is human mammary carcinoma MX-1. Description: Tumor xenograft in nude mice, 6 hr i.v. infusion. It is filed as in vivo. The conditions noted are these: as compared to control mice, MX-1 xenograft, listed as epothilone 490. How it is done: Athymic nude mice bearing the nu/nu gene are typically used for tumor xenografts. Outbred, Swiss-background mice were obtained from Charles River Laboratories. Male mice 8 weeks or older weighing 22 g and up were used for most experiments. The drug was administered via the tail vein for 6 hr.—i.v. infusion. Each individual mouse was confined in a perforated Falcon polypropylene tube restrainer for drug administration. Tumor volume was assessed by measuring length×width×height (or width) using a caliper. The programmable Harvard PHD2000 syringe pump (Harvard Apparatus) with multi-track was used for i.v. infusion. All animal studies were conducted in accordance with the guidelines of the National Institutes of Health “Guide for the Care and Use of Animals” and the protocol approved by the Memorial Sloan-Kettering Cancer Center's Institutional Animal Care and Use Committee. In keeping with the policy of this committee for the humane treatment of tumor-bearing animals, mice were euthanized when tumors reached ≧10% of their total body weight.
As depicted in FIGS. 14, 15, 16, and 17, Epo490 was tested in nude mice bearing human mammary carcinoma MX-1 following treatment with Epo490 or dEpoB (i.v. infusions for 6 hours). […] Tumor size and body weight were then measured using dosages of 30 mg/kg, 40 mg/kg or 50 mg/kg over 32 and 50 days.

SMILES strings stand for the structures. Read-outs that look alike come from different tables or passages of the source.

For the molecule `CC1=C/C[C@@H](/C(C)=C/c2csc(C)n2)OC(=O)C[C@H](O)C(C)(C)C(=O)[C@H](C)[C@@H](O)[C@@H](C)C\C=C\1` [Epo490, 10,11-dehydro-12,13-desoxyepothilone B], the “% Tubulin Binding” value with tubulin (Example 5 Table 1) and in the series with tubulin (Microtubules formed in the presence of dEpoB is defined as 100%) was 89% in each case. Moreover, the IC50 with CCRF-CEM/VM1 (Example 5 Table 1, 72 h inhibition, read-out: In vitro Cytotoxicities (IC50) C/VM1) amounted to 0.035 µM; with CCRF-CEM/VM1 (Example 11 Table 2, XTT assay following 72-h inhibition, read-out: In Vitro Cytotoxicities (IC50) CCRF-CEM/VMI) it was 0.035 µM; in the series on CCRF-CEM/VBL100 (Example 5 Table 1, 72 h inhibition, read-out: In vitro Cytotoxicities (IC50) C/VBL100) it was 0.091 µM; in the series with CCRF-CEM/VBL100 (Example 9 table, read-out: Cell Growth Inhibition (IC50) CCRF-CEM/VBL), 0.023 µM; with CCRF-CEM/VBL100 (Example 11 Table 2, XTT assay following 72-h inhibition, read-out: In Vitro Cytotoxicities (IC50) CCRF-CEM/VBL100), 0.091 µM; in the series on CCRF-CEM/Taxol (Example 5 Table 1, 72 h inhibition, read-out: In vitro Cytotoxicities (IC50) C/Taxol) it was 0.032 µM. Moreover, the IC50 with CCRF-CEM/Taxol (Example 9 table, read-out: Cell Growth Inhibition (IC50) CCRF-CEM/taxol) came to 0.013 µM; in the series on CCRF-CEM/Taxol (Example 11 Table 2, XTT assay following 72-h inhibition, read-out: In Vitro Cytotoxicities (IC50) CCRF-CEM/TAXOL), 0.032 µM; with CCRF-CEM (Example 5 Table 1, 72 h inhibition, read-out: In vitro Cytotoxicities (IC50) CCRF-CEM(C)) it was 0.025 µM; in the series on CCRF-CEM (Example 9 table, read-out: Cell Growth Inhibition (IC50) CCRF-CEM), 0.009 µM; in the series with CCRF-CEM (Example 11 Table 2, XTT assay following 72-h inhibition, read-out: In Vitro Cytotoxicities (IC50) CCRF-CEM), 0.025 µM. In addition, the “stability in human versus nude mice plasma” value in series [1] (FIG. 21 legend) is listed as “increased stability”. Moreover, the “degradation in human plasma” value in series [1] (after more than 3 hours of exposure in human plasma) is “no measurable degradation”. Moreover, in series [2] (as compared to dEpoB (FIG. 21)), the “degradation in murine plasma” value is listed as “faster degradation”. Further, the “activity in CCRF-CEM cell lines resistant to Taxol” value in the series on CCRF-CEM/Taxol (Example 12, in words) is reported as “demonstrated activity”. In addition, the “activity in CCRF-CEM cell lines” value in the series with CCRF-CEM (Example 12, in words) was “demonstrated activity”. For the same molecule, in series [3], the “inhibitory effect on the growth of the implanted tumors” value is “did not demonstrate a statistically significant inhibitory effect”.

Regarding `C/C(=C\c1csc(C)n1)[C@@H]1C/C=C(/C(F)(F)F)C/C=C/C[C@H](C)[C@H](O)[C@@H](C)C(=O)C(C)(C)[C@@H](O)CC(=O)O1` [27-Tn-F-[17]ddEpoB (22), 10,11-dehydro-13,14-desoxy-27-trifluoro-[17]epothilone B], the IC50 in the series with CCRF-CEM/VBL100 (Example 6 table, XTT assay following 72 h inhibition, read-out: CCRF-CEM/VBL (IC50 (μM))) amounted to 0.191 µM; in the series on CCRF-CEM (Example 6 table, XTT assay following 72 h inhibition, read-out: CCRF-CEM (IC50 (μM))), 0.068 µM. Moreover, the “stability in mouse blood plasma” value in series [2] (compared with the parent compound) is “more stable”.
